# Paper PMC9013686, “Inter-individual variation in chlorpyrifos toxicokinetics characterized by physiologically based kinetic (PBK) and Monte Carlo simulation comparing human liver microsome and Supersome™ cytochromes P450 (CYP)-specific kinetic data as model input” (Archives of Toxicology, 2022)
# Values joined by “and” are separate entries in the source; they are usually repeats but may differ in a detail not shown here. Identical values can stand only once. Marks after values point to notes of the source that are not given here.
# Experiments:
# [1] = PBK modelling with Monte Carlo simulation (Supersome-based and HLM-based); parameters: species or system human; conditions: oral 0.5 mg/kg bw CPF, in vivo data Nolan et al. [1984]
# Description: Compared to the PBK model of Zhao et al. ([2019]), only the fractional absorption was changed to 0.462, which is the mean value of reported fa values from Timchalk et al. ([2002]) (fa = 0.224) and Nolan et al. ([1984]) (fa = 0.7), while for the other model parameters (non-kinetic), the mean values as reported in Zhao et al. ([2019]) were used.
# Compared to the model of Zhao et al. ([2019]), in the Supersome™-based PBK model approach, the kinetic parameters of pathway 1 and pathway 2 were replaced from HLM-derived values to Supersome™-derived values, while the kinetic parameters of pathway 3 were kept the same. For pathway 4, instead of using the reported kinetic parameters from Mosquin et al. ([2009]), the calculated mean values of kinetic parameters obtained based on 25 individual HP samples derived by the present study were used. […]
# The performance of the Supersome™-based PBK model and the HLM-based PBK model (biphasic) were evaluated by comparing their predicted time-dependent TCPy and CPF blood concentrations including the maximum total (bound and unbound) blood concentration (Cmax) or time-dependent blood concentration, and the cumulative time-dependent urinary TCPy excretion with corresponding available in vivo data (Drevenkar et al. [1993]; Nolan et al. [1984]; Timchalk et al. [2002]) upon similar dosing regimens or estimated dose level. […]
# [2] = system: paraoxonase1 (PON1) in liver; conditions: Pathway 3 (CPO to TCPy in liver); pooled HLMs; ref Zhao et al. ([2019]); cited from earlier work
# PON1 in plasma = experiment: PON1-catalyzed detoxification of CPO to TCPy in individual human plasma (pathway 4); type: in vitro ADME; conditions: for CE / Scaled CE / Vmax / Vmax (app) / Scaled Vmax: CPO to TCPy; for Scaled Vmax: Eq 7
# Procedure: After 1 min preincubation in a shaking 37 °C water bath, 1 µl of individual HP was added into the incubation system. Control incubations were performed by replacing plasma with the same amount of 50 mM Tris–HCl (pH 7.4). The total volume of the incubation mixtures was 200 µl. The incubation lasted for 1.5 min at 37 °C and was terminated by addition of 200 µl ice cold ACN and subsquently put on ice. Samples were subsequently centrifuged at 16,000 g (4 ℃) for 5 min and analyzed by UPLC-PDA. […]
# In pathway 4, the in vivo VmaxHP (µmol/h) was extrapolated from its corresponding mean of the apparent VmaxHP(app) (nmol/min/ml plasma) of 25 individuals HP using Eq. 7:7 VmaxHP=VmaxHP(app)×60×1000×VB×0.55/1000,
structure (smiles),measurement,setting,value
"Oc1nc(Cl)c(Cl)cc1Cl [TCPy, 3,5,6-trichloro-2-pyridinol]",predicted blood Cmax versus mean in vivo Cmax,[1]; both PBK models,2.2 fold
same,predicted urinary excretion at 120 h versus in vivo value,[1],0.8 fold
"CCOP(=O)(OCC)Oc1nc(Cl)c(Cl)cc1Cl [CPO, chlorpyrifos-oxon]",Km,[2],628 µM
same,Vmax,[2],37.980 ^e nmol/min/mg microsomal protein
same,difference between the highest and the lowest CE,PON1 in plasma; CPO detoxification in plasma of 25 individuals,around 2.6 fold
same,CE,PON1 in plasma; plasma individual 1 (64),4.1 ml/min/ml plasma
same,Scaled CE,PON1 in plasma; plasma individual 1 (64),750.1 L/h
same,Vmax,PON1 in plasma; plasma individual 1 (64),1596 nmol/min/ml plasma
same,Vmax (app),PON1 in plasma; plasma individual 1 (64),21.78 nmol/min/mg plasma protein
same,Scaled Vmax,PON1 in plasma; plasma individual 1 (64),291247 µmol/h
same,CE,PON1 in plasma; plasma individual 2 (65),4.0 ml/min/ml plasma
same,Scaled CE,PON1 in plasma; plasma individual 2 (65),724.7 L/h
same,Vmax,PON1 in plasma; plasma individual 2 (65),1233 nmol/min/ml plasma
same,Vmax (app),PON1 in plasma; plasma individual 2 (65),17.32 nmol/min/mg plasma protein
same,Scaled Vmax,PON1 in plasma; plasma individual 2 (65),224952 µmol/h
same,CE,PON1 in plasma; plasma individual 3 (56),6.4 ml/min/ml plasma
same,Scaled CE,PON1 in plasma; plasma individual 3 (56),1172.4 L/h
same,Vmax,PON1 in plasma; plasma individual 3 (56),2439 nmol/min/ml plasma
same,Vmax (app),PON1 in plasma; plasma individual 3 (56),32.15 nmol/min/mg plasma protein
same,Scaled Vmax,PON1 in plasma; plasma individual 3 (56),445176 µmol/h
same,CE,PON1 in plasma; plasma individual 4 (52),5.0 ml/min/ml plasma
same,Scaled CE,PON1 in plasma; plasma individual 4 (52),915.9 L/h
same,Vmax,PON1 in plasma; plasma individual 4 (52),1591 nmol/min/ml plasma
same,Vmax (app),PON1 in plasma; plasma individual 4 (52),22.39 nmol/min/mg plasma protein
same,Scaled Vmax,PON1 in plasma; plasma individual 4 (52),290427 µmol/h
same,CE,PON1 in plasma; plasma individual 5 (51),5.2 ml/min/ml plasma
same,Scaled CE,PON1 in plasma; plasma individual 5 (51),939.9 L/h
same,Vmax,PON1 in plasma; plasma individual 5 (51),3284 nmol/min/ml plasma
same,Vmax (app),PON1 in plasma; plasma individual 5 (51),45.36 nmol/min/mg plasma protein
same,Scaled Vmax,PON1 in plasma; plasma individual 5 (51),599306 µmol/h
same,CE,PON1 in plasma; plasma individual 6 (57),5.7 ml/min/ml plasma
same,Scaled CE,PON1 in plasma; plasma individual 6 (57),1047.5 L/h
same,Vmax,PON1 in plasma; plasma individual 6 (57),1878 nmol/min/ml plasma
same,Vmax (app),PON1 in plasma; plasma individual 6 (57),23.22 nmol/min/mg plasma protein
same,Scaled Vmax,PON1 in plasma; plasma individual 6 (57),342626 µmol/h
same,CE,PON1 in plasma; plasma individual 7,7.9 ml/min/ml plasma
same,Scaled CE,PON1 in plasma; plasma individual 7,1441.5 L/h
same,Vmax,PON1 in plasma; plasma individual 7,1203 nmol/min/ml plasma
same,Vmax (app),PON1 in plasma; plasma individual 7,14.99 nmol/min/mg plasma protein
same,Scaled Vmax,PON1 in plasma; plasma individual 7,219543 µmol/h
same,CE,PON1 in plasma; plasma individual 8,7.3 ml/min/ml plasma
same,Scaled CE,PON1 in plasma; plasma individual 8,1332.3 L/h
same,Vmax,PON1 in plasma; plasma individual 8,1663 nmol/min/ml plasma
same,Vmax (app),PON1 in plasma; plasma individual 8,21.31 nmol/min/mg plasma protein
same,Scaled Vmax,PON1 in plasma; plasma individual 8,303506 µmol/h
same,CE,PON1 in plasma; plasma individual 9,7.6 ml/min/ml plasma
same,Scaled CE,PON1 in plasma; plasma individual 9,1391.7 L/h
same,Vmax,PON1 in plasma; plasma individual 9,2157 nmol/min/ml plasma
same,Vmax (app),PON1 in plasma; plasma individual 9,27.46 nmol/min/mg plasma protein
same,Scaled Vmax,PON1 in plasma; plasma individual 9,393583 µmol/h
same,CE,PON1 in plasma; plasma individual 10,9.2 ml/min/ml plasma
same,Scaled CE,PON1 in plasma; plasma individual 10,1671.6 L/h
same,Vmax,PON1 in plasma; plasma individual 10,2370 nmol/min/ml plasma
same,Vmax (app),PON1 in plasma; plasma individual 10,28.9 nmol/min/mg plasma protein
same,CE,PON1 in plasma; plasma individual 11,6.4 ml/min/ml plasma
same,Scaled CE,PON1 in plasma; plasma individual 11,1168.7 L/h
same,Vmax,PON1 in plasma; plasma individual 11,1314 nmol/min/ml plasma
same,Vmax (app),PON1 in plasma; plasma individual 11,17.42 nmol/min/mg plasma protein
same,Scaled Vmax,PON1 in plasma; plasma individual 11,239710 µmol/h
same,CE,PON1 in plasma; plasma individual 12,8.2 ml/min/ml plasma
same,Scaled CE,PON1 in plasma; plasma individual 12,1500.5 L/h
same,Vmax,PON1 in plasma; plasma individual 12,2461 nmol/min/ml plasma
same,Vmax (app),PON1 in plasma; plasma individual 12,26.75 nmol/min/mg plasma protein
same,Scaled Vmax,PON1 in plasma; plasma individual 12,449105 µmol/h
same,CE,PON1 in plasma; plasma individual 13,6.6 ml/min/ml plasma
same,Scaled CE,PON1 in plasma; plasma individual 13,1211.5 L/h
same,Vmax,PON1 in plasma; plasma individual 13,1498 nmol/min/ml plasma
same,Vmax (app),PON1 in plasma; plasma individual 13,20.58 nmol/min/mg plasma protein
same,Scaled Vmax,PON1 in plasma; plasma individual 13,273437 µmol/h
same,CE,PON1 in plasma; plasma individual 14,5.8 ml/min/ml plasma
same,Scaled CE,PON1 in plasma; plasma individual 14,1053.7 L/h
same,Vmax,PON1 in plasma; plasma individual 14,2064 nmol/min/ml plasma
same,Vmax (app),PON1 in plasma; plasma individual 14,28.36 nmol/min/mg plasma protein
same,Scaled Vmax,PON1 in plasma; plasma individual 14,376692 µmol/h
same,CE,PON1 in plasma; plasma individual 15,9.8 ml/min/ml plasma
same,Scaled CE,PON1 in plasma; plasma individual 15,1793.2 L/h
same,Vmax,PON1 in plasma; plasma individual 15,1840 nmol/min/ml plasma
same,Vmax (app),PON1 in plasma; plasma individual 15,24.79 nmol/min/mg plasma protein
same,Scaled Vmax,PON1 in plasma; plasma individual 15,335867 µmol/h
same,CE,PON1 in plasma; plasma individual 16,3.7 ml/min/ml plasma
same,Scaled CE,PON1 in plasma; plasma individual 16,671.6 L/h
same,Vmax,PON1 in plasma; plasma individual 16,912 nmol/min/ml plasma
same,Vmax (app),PON1 in plasma; plasma individual 16,11.28 nmol/min/mg plasma protein
same,Scaled Vmax,PON1 in plasma; plasma individual 16,166366 µmol/h
same,CE,PON1 in plasma; plasma individual 17,8.1 ml/min/ml plasma
same,Scaled CE,PON1 in plasma; plasma individual 17,1480.1 L/h
same,Vmax,PON1 in plasma; plasma individual 17,2287 nmol/min/ml plasma
same,Vmax (app),PON1 in plasma; plasma individual 17,32.03 nmol/min/mg plasma protein
same,Scaled Vmax,PON1 in plasma; plasma individual 17,417377 µmol/h
same,CE,PON1 in plasma; plasma individual 18,5.6 ml/min/ml plasma
same,Scaled CE,PON1 in plasma; plasma individual 18,1029.2 L/h
same,Vmax,PON1 in plasma; plasma individual 18,1132 nmol/min/ml plasma
same,Vmax (app),PON1 in plasma; plasma individual 18,15.18 nmol/min/mg plasma protein
same,Scaled Vmax,PON1 in plasma; plasma individual 18,206569 µmol/h
same,CE,PON1 in plasma; plasma individual 19 (48),5.3 ml/min/ml plasma
same,Scaled CE,PON1 in plasma; plasma individual 19 (48),971.2 L/h
same,Vmax,PON1 in plasma; plasma individual 19 (48),1329 nmol/min/ml plasma
same,Vmax (app),PON1 in plasma; plasma individual 19 (48),18.21 nmol/min/mg plasma protein
same,Scaled Vmax,PON1 in plasma; plasma individual 19 (48),242612 µmol/h
same,CE,PON1 in plasma; plasma individual 20 (49),6.9 ml/min/ml plasma
same,Scaled CE,PON1 in plasma; plasma individual 20 (49),1252.4 L/h
same,Vmax,PON1 in plasma; plasma individual 20 (49),2111 nmol/min/ml plasma
same,Vmax (app),PON1 in plasma; plasma individual 20 (49),24.85 nmol/min/mg plasma protein
same,Scaled Vmax,PON1 in plasma; plasma individual 20 (49),385226 µmol/h
same,CE,PON1 in plasma; plasma individual 21 (44),6.5 ml/min/ml plasma
same,Scaled CE,PON1 in plasma; plasma individual 21 (44),1181.9 L/h
same,Vmax,PON1 in plasma; plasma individual 21 (44),1835 nmol/min/ml plasma
same,Vmax (app),PON1 in plasma; plasma individual 21 (44),23.05 nmol/min/mg plasma protein
same,Scaled Vmax,PON1 in plasma; plasma individual 21 (44),334943 µmol/h
same,CE,PON1 in plasma; plasma individual 22 (34),7.3 ml/min/ml plasma
same,Scaled CE,PON1 in plasma; plasma individual 22 (34),1325.9 L/h
same,Vmax,PON1 in plasma; plasma individual 22 (34),1726 nmol/min/ml plasma
same,Vmax (app),PON1 in plasma; plasma individual 22 (34),24.05 nmol/min/mg plasma protein
same,Scaled Vmax,PON1 in plasma; plasma individual 22 (34),315041 µmol/h
same,CE,PON1 in plasma; plasma individual 23 (47),5.7 ml/min/ml plasma
same,Scaled CE,PON1 in plasma; plasma individual 23 (47),1044.7 L/h
same,Vmax,PON1 in plasma; plasma individual 23 (47),2141 nmol/min/ml plasma
same,Vmax (app),PON1 in plasma; plasma individual 23 (47),24.05 nmol/min/mg plasma protein
same,Scaled Vmax,PON1 in plasma; plasma individual 23 (47),390628 µmol/h
same,CE,PON1 in plasma; plasma individual 24 (28),8.7 ml/min/ml plasma
same,Scaled CE,PON1 in plasma; plasma individual 24 (28),1595.0 L/h
same,Vmax,PON1 in plasma; plasma individual 24 (28),2357 nmol/min/ml plasma
same,Vmax (app),PON1 in plasma; plasma individual 24 (28),28.44 nmol/min/mg plasma protein
same,Scaled Vmax,PON1 in plasma; plasma individual 24 (28),430169 µmol/h
same,CE,PON1 in plasma; plasma individual 25 (41),7.1 ml/min/ml plasma
same,Scaled CE,PON1 in plasma; plasma individual 25 (41),1293.4 L/h
same,Vmax,PON1 in plasma; plasma individual 25 (41),1676 nmol/min/ml plasma
same,Vmax (app),PON1 in plasma; plasma individual 25 (41),22.13 nmol/min/mg plasma protein
same,Scaled Vmax,PON1 in plasma; plasma individual 25 (41),305884 µmol/h
same,Vmax (mean),"PON1 in plasma; Pathway 4 (CPO to TCPy in plasma), mean of 25 individual HP samples",1844 nmol/min/ml plasma and 1844.000^i nmol/min/ml plasma
